Data reported in ChEMBL document CHEMBL3881525, “Analogs of dehydrophenylahistins and their therapeutic use” (2007).
Values after ≈ are worked out from the molar mass of the structure shown.

Legend:
[1] = Cytotoxicity against human HT-29 cells assessed as reduction in cell viability measured after 48 hrs by resazurin dye-based fluorometric analysis; format: functional; details: Homo sapiens, HT-29, 48 h
[2] = Cytotoxicity against human HT-29 cells assessed as reduction in cell viability measured after 48 hrs by resazurin dye-based fluorometric analysis relative to control; format: functional
[3] = Cytotoxicity against human PC3 cells assessed as reduction in cell viability measured after 48 hrs by resazurin dye-based fluorometric analysis relative to control; format: functional, PC-3; set-up: concentration or dose not given beside the values
[4] = test system: Aspergillus fumigatus; test: Antifungal activity against Aspergillus fumigatus isolate 1 measured after 48 hrs by broth dilution method; format: functional; details: isolate 1, 48 h
[5] = Antifungal activity against Trichophyton rubrum isolate 1 measured after 48 hrs by broth dilution method; format: functional
[6] = test system: Aspergillus fumigatus; test: Antifungal activity against Aspergillus fumigatus isolate 2 measured after 48 hrs by broth dilution method; format: functional; details: isolate 2, 48 h
[7] = Antifungal activity against Epidermophyton floccosum isolate 1 measured after 48 hrs by broth dilution method; format: functional
[8] = Antifungal activity against Trichophyton rubrum isolate 2 measured after 48 hrs by broth dilution method; format: functional
[9] = Antifungal activity against Trichophyton mentagrophytes isolate 1 measured after 48 hrs by broth dilution method; format: functional
[10] = Antifungal activity against Trichophyton mentagrophytes isolate 2 measured after 48 hrs by broth dilution method; format: functional
[11] = Antifungal activity against Candida glabrata measured after 48 hrs by broth dilution method; format: functional; details: Nakaseomyces glabratus
[12] = Antifungal activity against Epidermophyton floccosum isolate 2 measured after 48 hrs by broth dilution method; format: functional
[13] = test system: Trichophyton mentagrophytes; test: Fungicidal activity against Trichophyton mentagrophytes isolate 1 measured after 48 hrs by broth dilution method; format: functional; details: isolate 1, 48 h
[14] = test system: Trichophyton rubrum; test: Fungicidal activity against Trichophyton rubrum isolate 2 measured after 48 hrs by broth dilution method; format: functional; details: isolate 2, 48 h

| SMILES | EC50 [1] | inhibition (INH) [2] | further results |
| --- | --- | --- | --- |
| C=CC(C)(C)c1[nH]cnc1/C=C1\NC(=O)C(Cc2ccccc2)N=C1OC (centres undefined) | > 2000 nM | 13% |  |
| CC(C)(C)c1ocnc1/C=c1\[nH]c(=O)/c(=C/c2cn(S(=O)(=O)c3ccccc3)c3ccccc23)[nH]c1=O | > 6230 nM |  |  |
| Cc1ccsc1/C=c1\[nH]c(=O)/c(=C/c2nc[nH]c2C(C)(C)C)[nH]c1=O | 44 to 47 nM | 86% | Activity [3]: 81% |
| COc1cccc(/C=c2\[nH]c(=O)/c(=C/c3nc[nH]c3C(C)(C)C)[nH]c2=O)c1N.O=C(O)C(F)(F)F |  | 87% |  |
| CC(C)(C)c1[nH]cnc1/C=c1\[nH]c(=O)/c(=C/c2ccc(C#N)cc2)[nH]c1=O.O=C(O)C(F)(F)F |  | 14% |  |
| COc1cccc(/C=c2\[nH]c(=O)/c(=C/c3nc[nH]c3C(C)(C)C)[nH]c2=O)c1[N+](=O)[O-].O=C(O)C(F)(F)F |  | 83% |  |
| Cc1ccc(/C=c2\[nH]c(=O)/c(=C/c3nc[nH]c3C(C)(C)C)[nH]c2=O)s1 | 80 to 85.2 nM | 85 - 97% |  |
| COc1cc(/C=c2\[nH]c(=O)/c(=C/c3nc[nH]c3C(C)(C)C)[nH]c2=O)cc(OC)c1 | 42 to 45.4 nM | 87% | Activity [3]: 82% |
| CSc1ccccc1/C=c1\[nH]c(=O)/c(=C/c2nc[nH]c2C(C)(C)C)[nH]c1=O.O=C(O)C(F)(F)F |  | 87% |  |
| C=CC(C)(C)c1[nH]cnc1/C=c1\[nH]c(=O)/c(=C\c2ccc(OC)cc2)[nH]c1=O |  | 63% |  |
| C=CC(C)(C)c1[nH]cnc1/C=C1\N=C(OC)C(Cc2ccccc2)N=C1OC (centres undefined) | > 2000 nM | 4% |  |
| CC(C)(C)c1[nH]cnc1/C=c1\[nH]c(=O)/c(=C/c2cccc(OC(F)(F)F)c2)[nH]c1=O.O=C(O)C(F)(F)F | 13 to 14.3 nM | 87% |  |
| Cn1cccc1/C=c1\[nH]c(=O)/c(=C/c2nc[nH]c2C(C)(C)C)[nH]c1=O.O=C(O)C(F)(F)F | 105 to 117 nM | 88% |  |
| COc1cc(OC)c(/C=c2\[nH]c(=O)/c(=C/c3nc[nH]c3C(C)(C)C)[nH]c2=O)c(OC)c1.O=C(O)C(F)(F)F | > 2000 nM | 2% |  |
| CCC(C)n1ncn(-c2ccc(N3CCN(c4ccc(OCC5COC(Cn6cncn6)(c6ccc(Cl)cc6Cl)O5)cc4)CC3)cc2)c1=O (centres undefined) [ITRACONAZOLE] |  |  | MIC [4]: 1 µg/mL (≈ 1.42 µM) |
| COC1=CC(=O)C[C@@H](C)[C@]12Oc1c(Cl)c(OC)cc(OC)c1C2=O [GRISEOFULVIN] |  |  | MIC [5]: 0.5 µg/mL (≈ 1.42 µM); MIC [6]: 0.5 µg/mL (≈ 1.42 µM); MIC [7]: 2 µg/mL (≈ 5.67 µM); MIC [8]: < 0.015 µg/mL; MIC [9]: 1 µg/mL (≈ 2.83 µM); MIC [10]: 2 µg/mL (≈ 5.67 µM) |
| CC(C)(C)c1[nH]cnc1/C=c1\[nH]c(=O)/c(=C/c2ccc3c(c2)OCO3)[nH]c1=O | 82 to 87.3 nM | 84% | Activity [3]: 95% |
| COc1cccc2cc3c(=O)[nH]/c(=C\c4nc[nH]c4C(C)(C)C)c(=O)n3c12 | 6920 to 7040 nM | 58 - 100% |  |
| Cc1cccc(/C=c2\[nH]c(=O)/c(=C/c3nc[nH]c3C(C)(C)C)[nH]c2=O)n1.O=C(O)C(F)(F)F.O=C(O)C(F)(F)F | > 2000 nM | 37% |  |
| CC(C)(C)c1[nH]cnc1/C=c1\[nH]c(=O)/c(=C/c2cc(Cl)cc(Cl)c2)[nH]c1=O.O=C(O)C(F)(F)F |  | 87% |  |
| C=CC(C)(C)c1[nH]cnc1/C=C1\NC(=O)[C@H](Cc2ccccc2)NC1=O | 394 to 1600 nM | 87% | MIC [11]: > 70 µg/mL; MIC [5]: > 16 µg/mL; MIC [6]: > 16 µg/mL; MIC [7]: > 16 µg/mL; MIC [12]: > 16 µg/mL; MFC [13]: > 16 µg/mL; MFC [14]: > 16 µg/mL; MIC [4]: > 16 µg/mL; MIC [8]: 0.16 µg/mL (≈ 0.457 µM); MIC [9]: 16 µg/mL (≈ 45.7 µM); MIC [10]: > 16 µg/mL |
| COc1cccc(/C=c2\[nH]c(=O)/c(=C/c3nc[nH]c3C(C)(C)C)[nH]c2=O)c1O | 5360 to 5870 nM | 79 - 86% |  |
| COc1ccc(F)c(/C=c2\[nH]c(=O)/c(=C/c3nc[nH]c3C(C)(C)C)[nH]c2=O)c1.O=C(O)C(F)(F)F | 19 to 20.3 nM | 88% |  |
| COc1ccc(/C=c2\[nH]c(=O)/c(=C/c3nc[nH]c3C(C)(C)C)[nH]c2=O)cc1O.O=C(O)C(F)(F)F |  | 66% |  |
| CCc1ccc(/C=c2\[nH]c(=O)/c(=C/c3nc[nH]c3C(C)(C)C)[nH]c2=O)s1.O=C(O)C(F)(F)F |  | 87% |  |
| CC(C)(C)c1ocnc1/C=c1\[nH]c(=O)/c(=C/c2cc3ccccc3s2)[nH]c1=O | > 2000 nM |  |  |
